Assay results: ChEMBL document CHEMBL4011615, “Past, Current, and Future Developments of Therapeutic Agents for Treatment of Chronic Hepatitis B Virus Infection” (J Med Chem, 2017)
Each block holds one compound with its values, some of them ahead of it.

Tests used:
[1] = Cytotoxicity against human HepG2(2.2.15) cells assessed as reduction in cell viability after 3 days by methylene blue assay; type: cell-based
[2] = system: Hepatitis B virus; test: Antiviral activity against HBV infected in human HepG2(2.2.15) cells assessed as inhibition of viral DNA level after 6 days by Southern blot analysis; type: functional, cell-based; settings: HepG2 2.2.15, 144 h
[3] = system: Hepatitis B virus; test: Antiviral activity against HBV infected in human HepaRG cells assessed as reduction in viral infection after 16 hrs
[4] = system: Hepatitis B virus; test: Antiviral activity against HBV infected in human HepG2(2.2.15) cells assessed as inhibition of viral DNA level; type: functional, cell-based
[5] = system: Hepatitis B virus; test: Inhibition of HBV C150-Bodipy labeled capsid (1 to 150 residues) C49A/C61A/C107A mutant expressed in Escherichia coli assessed as reduction in NaCl-induced capsid assembly at 10 uM preincubated for 15 mins followed by NaCl addition measured after 1 hr by fluorescence quenching assay relative to control
[6] = system: Hepatitis B virus; test: Antiviral activity against HBV infected in human HepAD38 cells; type: functional, cell-based
[7] = Cytotoxicity against human HepG2(2.2.15) cells after 24 hrs by MTS assay; type: cell-based
[8] = system: Hepatitis B virus; test: Antiviral activity against HBV infected in human HepG2(2.2.15) cells assessed as inhibition of viral DNA level after 24 hrs by RT-PCR method; type: functional, cell-based; settings: HepG2 2.2.15, 24 h
[9] = system: Hepatitis B virus; test: Antiviral activity against HBV infected in human HepG2(2.2.15) cells assessed as reduction in intracellular viral capsid level at antiviral IC50 by immunoblot method; type: functional
[10] = system: Hepatitis B virus; test: Antiviral activity against HBV infected in human HepG2.N9 cells assessed as reduction in HBeAg level measured on day 8 post infection; type: functional, cell-based; settings: 192 h
[11] = system: Hepatitis B virus; test: Antiviral activity against HBV infected in human HepG2(2.2.15) cells assessed as inhibition of viral DNA level after 8 days by RT-PCR method; type: functional, cell-based; settings: HepG2 2.2.15, 192 h
[12] = system: Hepatitis B virus; test: Antiviral activity against HBV infected in human HepG2(2.2.15) cells assessed as inhibition of extracellular viral DNA level; type: functional, cell-based
[13] = system: Hepatitis B virus; test: Antiviral activity against HBV infected in human HuS-E/2 cells assessed as inhibition of viral mRNA level at 50 uM treated for 20 hrs measured after 7 days by RT-PCR method relative to control; type: functional
[14] = system: Hepatitis B virus; test: Antiviral activity against HBV infected in human HepG2(2.2.15) cells assessed as inhibition of viral RNA level; type: functional, cell-based

IC50 [2]: 1000 nM
SMILES: O=C1OCc2c1cc1ccc3c(c1c2-c1ccc2c(c1)OCO2)OCO3 [HELIOXANTHIN]
CC50 at 72 h [1]: 6000 nM

IC50 [3]: < 200 nM
SMILES: C/C=C/C[C@@H](C)[C@@H](O)[C@H]1C(=O)N[C@@H](CC)C(=O)N(C)CC(=O)N(C)[C@@H](CC(C)C)C(=O)N[C@@H](C(C)C)C(=O)N(C)[C@@H](CC(C)C)C(=O)N[C@@H](C)C(=O)N[C@H](C)C(=O)N(C)[C@@H](CC(C)C)C(=O)N(C)[C@@H](CC(C)C)C(=O)N(C)[C@@H](C(C)C)C(=O)N1C [CYCLOSPORINE]

IC50 [4]: 150 nM
SMILES: CCOC(=O)C1=C(C)NC(c2ncccc2F)=N[C@@H]1c1ccc(F)cc1Cl

SMILES: O=C(Nc1ccc(F)c(Cl)c1)N1CCCN(c2c(Cl)cncc2Cl)CC1
inhibition [5]: > 50%

IC50 [6]: 130 nM
SMILES: COc1ccccc1/C(Br)=C(/NC(=O)c1ccc([N+](=O)[O-])cc1)C(=O)N1CCCCC1

SMILES: O=C(CNC(=O)c1ccc(F)cc1)Nc1ccc(Cl)nc1Cl
CC50 at 24 h [7]: 144000 nM | IC50 [8]: 880 nM | inhibition (INH) [9]: 51%

IC50 [10]: 3300 nM
SMILES: CCCCC1=NC2(CCCC2)C(=O)N1Cc1ccc(-c2ccccc2-c2nnn[nH]2)cc1 [IRBESARTAN]

IC50 [11]: 1500 nM
SMILES: CC(=O)Nc1ccc(-c2cc(C)c(=O)n(Cc3ccc(Cl)cc3)n2)cc1

IC50 [4]: 11 nM
SMILES: COC(=O)C1=C(CN2CCOCC2)NC(c2nccs2)=N[C@H]1c1ccc(F)cc1Br

SMILES: O=c1[nH][nH]c(=O)c2c(-c3ccc4c(c3)OCO4)c3c4c(ccc3cc12)OCO4
CC50 at 72 h [1]: 9000 nM

SMILES: CC(=O)[C@]1(O)CC[C@@]2(O)[C@]1(C)[C@H](OC(=O)/C=C(\C)C(C)C)C[C@@H]1[C@@]3(C)CC[C@H](O)CC3=CC[C@]12O [CAUDATIN]
IC50 [4]: 40600 nM

SMILES: CC(=O)Oc1ccccc1C(=O)Nc1ncc([N+](=O)[O-])s1 [NITAZOXANIDE]
IC50 [12]: 120 nM

IC50 [11]: 140 nM
SMILES: CCOC(=O)c1sc(-c2nc(C)cs2)nc1CC(C)C

IC50 [12]: 150 nM
SMILES: O=C(Nc1ncc([N+](=O)[O-])s1)c1ccccc1O [TIZOXANIDE]

IC50 [4]: 250 nM
SMILES: O=c1cc(-c2ccc(O)c(-c3c(O)cc4oc(-c5ccc(O)cc5)cc(=O)c4c3O)c2)oc2cc(O)cc(O)c12 [ROBUSTAFLAVONE]

IC50 [4]: 280 nM
SMILES: CCOC(=O)C1=C(C)NC(c2c(F)cc(F)cc2F)=N[C@H]1c1ccc(F)cc1Cl

IC50 [4]: 12 nM
SMILES: CCOC(=O)C1=C(CN2CCOCC2)NC(c2nccs2)=NC1c1ccc(F)cc1Br (configuration not stated)

SMILES: O=C(O[C@@H]1Cc2c(O)cc(O)cc2O[C@@H]1c1cc(O)c(O)c(O)c1)c1cc(O)c(O)c(O)c1 [EPIGALOCATECHIN GALLATE]
inhibition at 50 µM [13]: > 80%

IC50 [14]: 1330 nM
SMILES: CC(C)Cc1nc(-c2nccs2)sc1C(=O)NCc1ccc(F)cc1
